Results: patent US11993640B2, “Treating inflammatory lung disease” (United States Government as represented by the Department …, priority 2019, dated 2024)
Non-standard residues stand in square brackets, D forms with d. Residues, ends and D or L forms follow the SMILES beside them. *: point of attachment. Phe(F5) = N[C@@H](Cc1c(F)c(F)c(F)c(F)c1F)C(=O)O; Phe(4-Cl) = N[C@@H](Cc1ccc(Cl)cc1)C(=O)O; hArg = N=C(N)NCCCC[C@H](N)C(=O)O; 12Ado = NCCCCCCCCCCCC(=O)O; Nle = CCCC[C@H](N)C(=O)O; Orn = NCCC[C@H](N)C(=O)O; Abu = CC[C@H](N)C(=O)O; PhAc = O=C(Cc1ccccc1)*

Tests used:
Format in all cases: cell-based, human
Conditions in all cases: 5 μM, 72 h; relative to MIA602 = 1; Table 3A
[1] = test system: NCI-N87 cells; assay: In vitro cell viability (CellTiter 96), stomach cancer N87
Description: (§1) The inhibitory effects of the various synthesized GHRH antagonists were tested in cell proliferation assays in various human cancer cell lines including stomach cancer (KATOIII, N87), colon cancer (HT-29), urothelial cancer (J82, RT4), pancreatic cancer (PANC-1, CFPAC-1), prostatic cancer (PC3), breast cancer (MX-1, HCC1806), ovarian cancer (SK-OV-3, OVCAR-3) and lung cancer (HCC827, H460).
(§2) Cell culture. Human cancer cell lines including pancreatic (PANC-1 and CFPAC-1), lung (HCC827 and H460), stomach (NCI-N87 and KATOIII), urothelial (J82, RT4), prostatic (PC3), breast (MX-1 and HCC 1806), colorectal (HT-29), and ovarian (SK-OV-3 and OVCAR-3) were obtained from the American Type Culture Collection (ATCC) and cultured at 37° C. in a humidified 95% air/5% CO2 atmosphere in the medium recommended by ATCC.
(§3) In vitro cell viability. Cell viability was analyzed as follows: cancer cells including pancreatic (PANC-1 and CFPAC-1), lung (HCC827 and H460), stomach (NCI-N87 and KATOIII), urothelial (J82, RT4), prostatic (PC3) and breast (MX-1 and HCC 1806), colorectal (HT-29) and ovarian (SK-OV-3 and OVCAR-3) were grown on 96 well plates to ˜60% confluence, the cells were starved for 24 h in culture medium containing 0.5% FBS. Cells were then treated with GHRH antagonists MIA602 AVR compounds at concentrations of 1, 2.5 or 5 μM, or vehicle (0.1% DMSO) in quintuplicates for 72 hours. The medium was replaced every 48 hours. Cell viability was measured using CellTiter 96 aqueous one solution kit (Promega). Inhibitory effects of tested AVR compounds in comparison to that of MIA602 are presented as inhibitory potency.
(§4) Inhibitory effects of selected AVR compounds in comparison to that of MIA602 are presented as inhibitory potency (e.g., percentage of inhibition). […] The cell lines tested including lung cancer HCC827 (FIG. 2A), pancreatic cancer CFPAC-1 (FIG. 2B), stomach cancer N87 (FIG. 2C), colon cancer HT-29 (FIG. 2D), breast cancers MX-1 and HCC1806 (FIGS. 2E, F). Based on the results of cell proliferation assay after cancer cells were treated with antagonist at concentration of 5 μM for 72H, the relative inhibitory potency of AVR antagonists in comparison to MIA-602 is summarized in Table 3 A and B. Over 60 AVR compounds were tested in 12 cancer cell lines.
(§5) Based on the results of cell proliferation assay after cancer cells were treated with antagonist at concentration of 5 µM for 72H, * at concentration of 2 µM for 72 H.

[2] = test system: KATOIII cells; assay: In vitro cell viability, stomach cancer KATOIII
Description: as §1, §2, §3, §4

[3] = test system: HCC827 cells; assay: In vitro cell viability, lung cancer HCC827
Description: as §1, §2, §3, §4, §5

[4] = test system: CFPAC-1 cells; assay: In vitro cell viability, pancreatic cancer CFPAC-1
Description: as §1, §2, §3, §4, §5

[5] = test system: PANC-1 cells; assay: In vitro cell viability, pancreatic cancer PANC-1
Description: as §1, §2, §3, §4

[6] = test system: J82 cells; assay: In vitro cell viability, urothelial cancer J82
Description: as §1, §2, §3, §4

[7] = test system: RT4 cells; assay: In vitro cell viability, urothelial cancer RT4
Description: as §1, §2, §3
(§6) Inhibitory effects of selected AVR compounds in comparison to that of MIA602 are presented as inhibitory potency (e.g., percentage of inhibition). […] The cell lines tested including lung cancer HCC827 (FIG. 2A), pancreatic cancer CFPAC-1 (FIG. 2B), stomach cancer N87 (FIG. 2C), colon cancer HT-29 (FIG. 2D), breast cancers MX-1 and HCC1806 (FIGS. 2E, F). […]

[8] = test system: PC3 cells; assay: In vitro cell viability, prostatic cancer PC3
Description: as §1, §2, §3, §6

[9] = test system: HCC1806 cells; assay: In vitro cell viability, breast cancer HCC1806
Description: as §1, §2, §3, §4, §5

[10] = test system: MX-1 cells; assay: In vitro cell viability, breast cancer MX-1
Description: as §1, §2, §3, §4, §5

## CCCC[C@H](NC(=O)[C@@H](NC(=O)[C@H](CC(=O)O)NC(=O)[C@H](CCC(N)=O)NC(=O)[C@H](CC(C)C)NC(=O)[C@H](CC(C)C)NC(=O)[C@H](CCCN)NC(=O)[C@H](Cc1c[nH]cn1)NC(=O)[C@H](C)NC(=O)[C@H](CO)NC(=O)[C@H](CC(C)C)NC(=O)[C@H](CCC(N)=O)NC(=O)[C@H](CC)NC(=O)[C@H](CC(C)C)NC(=O)[C@@H](NC(=O)[C@H](CCCCN)NC(=O)[C@H](CCCNC(=N)N)NC(=O)[C@H](Cc1ccc(OC)cc1)NC(=O)[C@H](CCCNC(=N)N)NC(=O)[C@H](C)NC(=O)[C@@H](NC(=O)[C@H](Cc1ccc(Cl)cc1)NC(=O)[C@@H](NC(=O)[C@H](C)NC(=O)[C@H](CC(=O)O)NC(=O)[C@@H](CCCNC(=N)N)NC(=O)[C@H](Cc1ccc(O)cc1)NC(=O)CCCCCCCCCCCNC(=O)Cc1ccccc1)[C@@H](C)CC)[C@@H](C)O)C(C)C)[C@@H](C)CC)C(=O)N[C@H](CCCNC(=N)N)C(=O)N[C@@H](CCCCNC(=N)N)C(N)=O [AVR-104, PhAC-Ada-Tyr-DArg-Asp-Ala-Ile-Cpa-Thr-Ala-Arg-Tyr(Me)-Arg-Lys-Val-Leu-Abu-Gln-Leu-Ser-Ala-His-Orn-Leu-Leu-Gln-Asp-Ile-Nle-DArg-Har-NH2] ({PhAc-12Ado}-Y[dR]DAI[Phe(4-Cl)]TARY(Me)RKVL[Abu]QLSAH[Orn]LLQDI[Nle][dR][hArg]-NH2)
[1]
  Relative inhibitory potency, Stomach N87: 2.291
[2]
  Relative inhibitory potency, Stomach KATOIII: 1.321
[3]
  Relative inhibitory potency, Lung HCC827: 1.525
[4]
  Relative inhibitory potency, Pancreatic CFPAC-1: 1.502
[5]
  Relative inhibitory potency, Pancreatic Panc-1: 1.114
[6]
  Relative inhibitory potency, Urothelial J82: 3.377
[7]
  Relative inhibitory potency, Urothelial RT4: 1.697
[8]
  Relative inhibitory potency, Prostatic PC3: 1.440
[9]
  Relative inhibitory potency, Breast HCC1806: 1.220
[10]
  Relative inhibitory potency, Breast MX-1: 1.310

## CCCC[C@H](NC(=O)[C@@H](NC(=O)[C@H](CC(=O)O)NC(=O)[C@H](CCC(N)=O)NC(=O)[C@H](CC(C)C)NC(=O)[C@H](CC(C)C)NC(=O)[C@H](CCCCN)NC(=O)[C@H](CCCNC(=N)N)NC(=O)[C@H](C)NC(=O)[C@H](CO)NC(=O)[C@H](CC(C)C)NC(=O)[C@H](CCC(N)=O)NC(=O)[C@H](CC)NC(=O)[C@H](CC(C)C)NC(=O)[C@@H](NC(=O)[C@H](CCCCN)NC(=O)[C@H](CCCNC(=N)N)NC(=O)[C@H](Cc1ccc(O)cc1)NC(=O)[C@H](CCCNC(=N)N)NC(=O)[C@H](C)NC(=O)[C@@H](NC(=O)[C@H](Cc1ccc(Cl)cc1)NC(=O)[C@@H](NC(=O)[C@H](C)NC(=O)[C@H](CC(=O)O)NC(=O)[C@@H](CCCNC(=N)N)NC(=O)[C@H](Cc1ccc(O)cc1)NC(=O)CCCCCCCCCCCNC(=O)Cc1ccccc1)[C@@H](C)CC)[C@@H](C)O)C(C)C)[C@@H](C)CC)C(=O)N[C@H](CCCNC(=N)N)C(=O)N[C@@H](CCCCNC(=N)N)C(N)=O [AVR-107, PhAC-Ada-Tyr-DArg-Asp-Ala-Ile-Cpa-Thr-Ala-Arg-Tyr-Arg-Lys-Val-Leu-Abu-Gln-Leu-Ser-Ala-Arg-Lys-Leu-Leu-Gln-Asp-Ile-Nle-DArg-Har-NH2] ({PhAc-12Ado}-Y[dR]DAI[Phe(4-Cl)]TARYRKVL[Abu]QLSARKLLQDI[Nle][dR][hArg]-NH2)
[2]
  Relative inhibitory potency, Stomach KATOIII: 1.295
[4]
  Relative inhibitory potency, Pancreatic CFPAC-1: 1.080
[5]
  Relative inhibitory potency, Pancreatic Panc-1: 1.160
[8]
  Relative inhibitory potency, Prostatic PC3: 0.800
[9]
  Relative inhibitory potency, Breast HCC1806: 0.950
[10]
  Relative inhibitory potency, Breast MX-1: 1.010

## CCCC[C@H](NC(=O)[C@@H](NC(=O)[C@H](CC(=O)O)NC(=O)[C@H](CCC(N)=O)NC(=O)[C@H](CC(C)C)NC(=O)[C@H](CC(C)C)NC(=O)[C@H](CCCN)NC(=O)[C@H](Cc1c[nH]cn1)NC(=O)[C@H](C)NC(=O)[C@H](CO)NC(=O)[C@H](CC(C)C)NC(=O)[C@H](CCC(N)=O)NC(=O)[C@H](CC)NC(=O)[C@H](CC(C)C)NC(=O)[C@@H](NC(=O)[C@H](CCCCN)NC(=O)[C@H](CCCNC(=N)N)NC(=O)[C@H](Cc1ccc(OC)cc1)NC(=O)[C@H](CCCNC(=N)N)NC(=O)[C@H](C)NC(=O)[C@@H](NC(=O)[C@H](Cc1ccc(Cl)cc1)NC(=O)[C@@H](NC(=O)[C@H](C)NC(=O)[C@H](CC(=O)O)NC(=O)[C@@H](CCCNC(=N)N)NC(=O)[C@H](Cc1ccc(O)cc1)NC(=O)CCCCCCCCCCCNC(=O)[C@H](N)Cc1ccccc1)[C@@H](C)CC)[C@@H](C)O)C(C)C)[C@@H](C)CC)C(=O)N[C@H](CCCNC(=N)N)C(=O)N[C@@H](CCCCNC(=N)N)C(N)=O [AVR-120, D-Phe-Ada-Tyr-DArg-Asp-Ala-Ile-Cpa-Thr-Ala-Arg-Tyr(Me)-Arg-Lys-Val-Leu-Abu-Gln-Leu-Ser-Ala-His-Orn-Leu-Leu-Gln-Asp-Ile-Nle-DArg-Har-NH2] (H-[dF][12Ado]Y[dR]DAI[Phe(4-Cl)]TARY(Me)RKVL[Abu]QLSAH[Orn]LLQDI[Nle][dR][hArg]-NH2; N-terminus assumed)
[1]
  Relative inhibitory potency, Stomach N87: 2.339
[2]
  Relative inhibitory potency, Stomach KATOIII: 1.271
[3]
  Relative inhibitory potency, Lung HCC827: 1.423
[4]
  Relative inhibitory potency, Pancreatic CFPAC-1: 1.617
[5]
  Relative inhibitory potency, Pancreatic Panc-1: 1.306
[6]
  Relative inhibitory potency, Urothelial J82: 4.841
[7]
  Relative inhibitory potency, Urothelial RT4: 1.611

## CCCC[C@H](NC(=O)[C@@H](NC(=O)[C@H](CC(=O)O)NC(=O)[C@H](CCC(N)=O)NC(=O)[C@H](CC(C)C)NC(=O)[C@H](CC(C)C)NC(=O)[C@H](CCCN)NC(=O)[C@H](Cc1c[nH]cn1)NC(=O)[C@H](C)NC(=O)[C@H](CO)NC(=O)[C@H](CC(C)C)NC(=O)[C@H](CCC(N)=O)NC(=O)[C@H](CC)NC(=O)[C@H](CC(C)C)NC(=O)[C@@H](NC(=O)[C@H](CCCCN)NC(=O)[C@H](CCCNC(=N)N)NC(=O)[C@H](Cc1c(F)c(F)c(F)c(F)c1F)NC(=O)[C@H](CCCNC(=N)N)NC(=O)[C@H](C)NC(=O)[C@@H](NC(=O)[C@H](Cc1ccc(Cl)cc1)NC(=O)[C@@H](NC(=O)[C@H](C)NC(=O)[C@H](CC(=O)O)NC(=O)[C@@H](CCCNC(=N)N)NC(=O)[C@H](Cc1ccc(O)cc1)NC(=O)CCCCCCCCCCCNC(=O)Cc1ccccc1)[C@@H](C)CC)[C@@H](C)O)C(C)C)[C@@H](C)CC)C(=O)N[C@H](CCCNC(=N)N)C(=O)N[C@@H](CCCCNC(=N)N)C(N)=O [AVR-116, PhAC-Ada-Tyr-DArg-Asp-Ala-Ile-Cpa-Thr-Ala-Arg-5FPhe-Arg-Lys-Val-Leu-Abu-Gln-Leu-Ser-Ala-His-Orn-Leu-Leu-Gln-Asp-Ile-Nle-DArg-Har-NH2] ({PhAc-12Ado}-Y[dR]DAI[Phe(4-Cl)]TAR[Phe(F5)]RKVL[Abu]QLSAH[Orn]LLQDI[Nle][dR][hArg]-NH2)
[1]
  Relative inhibitory potency, Stomach N87: 2.484
[2]
  Relative inhibitory potency, Stomach KATOIII: 1.202
[3]
  Relative inhibitory potency, Lung HCC827: 2.470
[4]
  Relative inhibitory potency, Pancreatic CFPAC-1: 1.445
[5]
  Relative inhibitory potency, Pancreatic Panc-1: 1.208
[6]
  Relative inhibitory potency, Urothelial J82: 3.034
